Structures can show the parent of a compound that is named as a salt.
Legend:
[1] = target: T1, nucleoside transport protein (Homo sapiens, UniProt Q99808); assay: inhibition of the nucleoside transport protein ([3H]NBl displacement, erythrocyte membrane); type: binding; settings: 1.5 nM [3H]NBl; for % Displacement at 10 μM: 10 μM compound; for Ki: 30 minutes at 25° C.
T1 construct: 100 μl of an aqueous suspension of erythrocyte membrane; from tissue; host or cells: erythrocyte membrane
T1 sequence (Q99808 1-456): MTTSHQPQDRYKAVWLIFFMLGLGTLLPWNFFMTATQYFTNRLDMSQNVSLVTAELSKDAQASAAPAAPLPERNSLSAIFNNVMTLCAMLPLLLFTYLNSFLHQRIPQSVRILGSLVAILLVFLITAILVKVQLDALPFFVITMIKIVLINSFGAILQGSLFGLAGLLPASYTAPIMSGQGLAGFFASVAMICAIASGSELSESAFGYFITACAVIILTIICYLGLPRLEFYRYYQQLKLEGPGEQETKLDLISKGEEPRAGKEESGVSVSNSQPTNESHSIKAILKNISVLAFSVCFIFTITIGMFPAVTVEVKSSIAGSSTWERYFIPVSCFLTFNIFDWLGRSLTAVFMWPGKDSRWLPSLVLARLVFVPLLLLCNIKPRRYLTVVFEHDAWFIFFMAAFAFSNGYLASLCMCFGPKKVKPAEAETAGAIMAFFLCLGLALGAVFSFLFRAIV
Description: The following test conditions were chosen for the determination of the inhibition of the nucleoside transport protein:
100 μl of the substance solution in aqueous solution with DMSO as solution aid were incubated for 30 minutes at 25° C. with 100 μl of 1.5 nM [^3H]NBl ([…]), 100 μl of buffer (50 mM Tris.HCl, pH 7.4) and 100 μl of an aqueous suspension of erythrocyte membrane. After the incubation the test mixture was filtered off (Whatman GF/C Filter, post-washed with 50 mM Tris.HCl). The filters were transferred to test tubes, 3.5 ml of scintillation fluid were added, and after 2 hours the radioactivity was measured in a β-counter.

[2] = test system: (+)-MK801 binding site of the ionotropic NMDA receptor; assay: (3H)-(+)-MK801 receptor binding test on rat brain membrane homogenate; settings: 10 μmole/l compound, 1 nmole/l (3H)-(+)-MK801, mean values of double determinations
Description: The investigations to determine the NMDA antagonistic action of the compounds according to the invention were carried out on brain membrane homogenates (rat brain homogenate minus cerebellum, pons and medulla oblongata from male Wistar strain rats (Charles River, Sulzfeld, Germany)).
For this, freshly prepared rat brains were digested, after removal of the cerebellum, pons and medulla oblongata, in 50 mmole/l Tris/HCl (pH 7.7) in a Polytron homogeniser (model PT3000, Kinematika AG, Littau, Switzerland) at 6,000 revs. per minute (rpm) for 1 minute while cooling in ice and then centrifuged for 15 minutes at 4° C. and 60,000 g. The supernatant was decanted and discarded, and the membrane pellet was taken up again in 50 mmole/l of Tris/HCl (pH 7.7) and digested in a homogeniser at 2,000 rpm for 1 minute and recentrifuged for 15 minutes at 4° C. and 60,000 g. The supernatant was discarded again and the membrane pellet was homogenised in 50 mmole/l Tris/HCl (pH 7.7) (2,000 rpm for 1 minute) and aliquot portions were frozen at −70° C.
For the receptor binding test aliquots were in each case thawed out and then centrifuged for 15 minutes at 4° C. and 60,000 g. After decanting and discarding the supernatant, the membrane pellet for the binding test was taken up in binding test buffer and homogenised (2,000 rpm for 1 minute). 5 mmole/l Tris/HCl (pH 7.7) supplemented with 30 μmole/l of glycine and 100 μmole/l of glutamic acid was used as binding test buffer.
1 nmole/l of (^3H)-(+)-MK801 ((5R, 10S)-(+)-5-methyl-10,11-dihydro-5H-dibenzo(a,d)cyclohepten-5,10-imine (NET-972, NEN, Cologne, Germany) was added as radioactively labelled ligand. The proportion of non-specific binding was determined in the presence of 10 μmole/l of non-radioactively labelled (+)-MK801 (RBI/Sigma, Deisenhofen, Germany). In further assays the respective compounds according to the invention were added in concentration series and the displacement of the radioactive ligand from its specific binding to the NMDA receptor was measured.
The batches were incubated in each case for 40 minutes at 25° C. and then harvested by filtration to determine the radioactive ligand bound to the brain membrane homogenate. The radioactivity retained by the filter was measured after adding a scintillator (“Ready Protein” scintillator, Beckmann Coulter GmbH, Krefeld, Germany) in a β-counter (Packard TR^1-CARB Liquid Scintillation Analyser 2000CA, Packard Instrument, Meriden, Conn. 06450, USA).
The resulting percentage inhibition of the specific binding of the ligand (^3H)-(+)-MK801 in the presence of in each case 10 μmole/l of the respective compound according to the invention serves as a measure of the affinity of this compound for the (+)-MK801 binding site of the ionotropic NMDA receptor. The affinities are given in Table 2 as mean values of double determinations on selected examples.

[3] = target: T2, recombinant human adenosine A3 receptor (Homo sapiens, UniProt P0DMS8); assay: adenosine A3 receptor displacement assay with [125I]AB-MECA; type: binding; settings: compound concentration 3 μM; ligand 0.1 nM [125I]AB-MECA
T2 construct: expressed in transfected cells
T2 sequence (P0DMS8 1-318): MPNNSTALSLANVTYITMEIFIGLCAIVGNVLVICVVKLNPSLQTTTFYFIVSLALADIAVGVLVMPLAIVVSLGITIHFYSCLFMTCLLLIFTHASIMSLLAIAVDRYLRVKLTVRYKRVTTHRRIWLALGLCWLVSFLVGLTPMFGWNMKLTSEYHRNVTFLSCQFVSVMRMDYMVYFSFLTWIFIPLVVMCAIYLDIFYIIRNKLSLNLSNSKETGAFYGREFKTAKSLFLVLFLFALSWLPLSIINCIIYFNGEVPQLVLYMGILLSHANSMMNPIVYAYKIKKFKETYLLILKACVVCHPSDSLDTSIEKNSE
Description: The dihydrochloride of Example 147 (prepared from Example 147 in a similar manner to Examples 145 and 152) was investigated as regards its affinity for the recombinant human adenosine A3 receptor in a displacement assay (C. A. Salvatore et al., Process. Natl. Acad. Sci. USA (1993), Vol. 90, 10365–10369). At a ligand concentration of 0.1 nM [^125I]AB-MECA (N^6-(4-amino-3-[^125I]iodobenzyladenosine) the displacement at a concentration of 3 μM was 93%.

Row | Structure (SMILES) | % Inhibition of the specific binding of the ligand (3H)-(+)-MK801 [2] [%] | Ki [1] [µM] | also measured
1 | COc1ccc(C2CC(c3ccc([N+](=O)[O-])s3)Nc3c(C#N)cnn32)cc1OC (stereo not shown) [Example 56, 7-(3,4-dimethoxyphenyl)-5-(5-nitrothiophen-2-yl)-tetrahydropyrazolo[1,5-a]pyrimidine-3-carbonitrile] |  |  | % Displacement at 10 μM [1]: 43%
2 | OC1=NN2C(=NC(c3ccccn3)CC2c2ccccc2)C1N=Nc1ccccc1 (stereo not shown) [Example 140, 7-phenyl-3-phenylazo-5-pyridin-2-yl-3,5,6,7-tetrahydropyrazolo[1,5-a]pyrimidin-2-ol] | 44 |  | 
3 | N#CC1C=NN2C1=NC(c1ccccn1)CC2Sc1ccccc1 (stereo not shown) [Example 144, 7-phenylsulfanyl-5-pyridin-2-yl-3,5,6,7-tetrahydropyrazolo[1,5-a]pyrimidine-3-carbonitrile] | 45 |  | 
4 | COc1ccc(C2CC(CCc3ccccc3)Nc3c(C#N)c(SC)nn32)cc1OC (stereo not shown) [Example 111, 7-(3,4-dimethoxyphenyl)-2-methylsulfanyl-5-phenethyl-tetrahydropyrazolo[1,5-a]pyrimidine-3-carbonitrile] |  | 0.3 | 
5 | COc1ccc(C2CC(c3ccccn3)Nc3c(Br)c(-c4ccccc4)nn32)cc1OC (stereo not shown) [Example 145, 3-bromo-7-(3,4-dimethoxyphenyl)-2-phenyl-5-pyridin-2-yl-4,5,6,7-tetrahydropyrazolo[1,5-a]pyrimidine dihydrochloride] |  | 0.4 | 
6 | BrC1C=NN2C1=NC(c1ccccn1)CC2Sc1ccccc1 (stereo not shown) [Example 143, 3-bromo-7-phenylsulfanyl-5-pyridin-2-yl-3,5,6,7-tetrahydropyrazolo[1,5-a]pyrimidine] | 49 |  | 
7 | COc1ccc(C2CC(c3ccccn3)Nc3c(Br)c(-c4ccccc4)nn32)cc1OC (stereo not shown) [dihydrochloride of Example 147, 3-bromo-7-(3,4-dimethoxyphenyl)-2-phenyl-5-pyridin-2-yl-tetrahydropyrazolo[1,5-a]pyrimidine] |  |  | displacement [3]: 93%
8 | CCOC(=O)C1C=NN2C1=NC(c1ccccn1)CC2Sc1ccccc1 (stereo not shown) [Example 141, 7-phenylsulfanyl-5-pyridin-2-yl-3,5,6,7-tetrahydropyrazolo[1,5-a]pyrimidine-3-carboxylic acid ethyl ester] | 45 |  | 
9 | COc1ccc(C2CC(c3ccc([N+](=O)[O-])s3)Nc3c(Br)c(-c4ccccc4)nn32)cc1OC (stereo not shown) [Example 54, 3-bromo-7-(3,4-dimethoxyphenyl)-5-(5-nitrothiophen-2-yl)-2-phenyltetrahydropyrazolo[1,5-a]pyrimidine] |  | 1.3 | 
10 | COc1ccc(C2CC(c3ccc([N+](=O)[O-])o3)Nc3c(C#N)c(SC)nn32)cc1OC (stereo not shown) [Example 153, 7-(3,4-dimethoxyphenyl)-2-methylsulfanyl-5-(5-nitrofuran-2-yl) tetrahydropyrazolo[1,5-a]pyrimidine-3-carbonitrile] |  |  | % Displacement at 10 μM [1]: 50%
11 | COc1ccc(C2CC(c3ccc([N+](=O)[O-])o3)Nc3c(Br)c(-c4ccccc4)nn32)cc1OC (stereo not shown) [Example 39, 3-bromo-7-(3,4-dimethoxyphenyl)-5-(5-nitrofuran-2-yl)-2-phenyl-tetrahydropyrazolo[1,5-a]pyrimidine] |  |  | % Displacement at 10 μM [1]: 40%
12 | COc1ccc(C2CC(c3ccc([N+](=O)[O-])s3)Nc3c(N=Nc4ccccc4)c(O)nn32)cc1OC (stereo not shown) [Example 53, 7-(3,4-dimethoxyphenyl)-5-(5-nitrothiophen-2-yl)-3-phenylazotetrahydropyrazolo[1,5-a]pyrimidin-2-ol] |  | 0.6 | 
13 | CCOC(=O)c1cnn2c1NC(c1ccccn1)CC2c1ccc(OC)c(OC)c1 (stereo not shown) [Example 154, 7-(3,4-dimethoxyphenyl)-5-pyridin-2-yl-4,5,6,7-tetrahydropyrazolo[1,5-a]pyrimidine-3-carboxylic acid ethyl ester] |  |  | % Displacement at 10 μM [1]: 41%
14 | COc1ccc(C2CC(C(=O)c3ccccc3)Nc3c(C#N)c(SC)nn32)cc1OC (stereo not shown) [Example 64, 5-benzoyl-7-(3,4-dimethoxyphenyl)-2-methylsulfanyltetrahydropyrazolo[1,5-a]pyrimidine-3-carbonitrile] |  | 0.6 | 
15 | OC1=NN2C(=NC(c3ccccn3)CC2Sc2ccccc2)C1N=Nc1ccccc1 (stereo not shown) [Example 142, 3-phenylazo-7-phenylsulfanyl-5-pyridin-2-yl-3,5,6,7-tetrahydropyrazolo[1,5-a]pyrimidin-2-ol] | 75 |  | 
16 | COc1ccc(C2CC(c3ccc([N+](=O)[O-])s3)Nc3c(C#N)c(SC)nn32)cc1OC (stereo not shown) [Example 55, 7-(3,4-dimethoxyphenyl)-2-methylsulfanyl-5-(5-nitrothiophen-2-yl)-tetrahydropyrazolo[1,5-a]pyrimidine-3-carbonitrile] |  | 0.4 | 

Source: patent US7135568B2, “Substituted pyrazolopyrimidines and thiazolopyrimidines” (Gruenenthal GmbH, priority 2001, dated 2006)
